The source of these data is patent US7932270B2 (Cytokinetics, Inc., priority 2006, dated 2011).

The target of this experiment is T1, chicken gizzard smooth muscle myosin subfragment-1 chemically crosslinked to cardiac or skeletal actin (Gallus gallus, UniProt P10587).
T1 construct: chicken gizzard smooth muscle myosin subfragment-1; from tissue; host or cells: chicken gizzard
T1 sequence (P02607 2-151): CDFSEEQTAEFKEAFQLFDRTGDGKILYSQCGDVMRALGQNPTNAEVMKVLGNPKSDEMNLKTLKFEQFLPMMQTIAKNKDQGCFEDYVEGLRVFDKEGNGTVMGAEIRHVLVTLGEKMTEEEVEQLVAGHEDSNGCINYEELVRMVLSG
T1 sequence (P10587 84-789): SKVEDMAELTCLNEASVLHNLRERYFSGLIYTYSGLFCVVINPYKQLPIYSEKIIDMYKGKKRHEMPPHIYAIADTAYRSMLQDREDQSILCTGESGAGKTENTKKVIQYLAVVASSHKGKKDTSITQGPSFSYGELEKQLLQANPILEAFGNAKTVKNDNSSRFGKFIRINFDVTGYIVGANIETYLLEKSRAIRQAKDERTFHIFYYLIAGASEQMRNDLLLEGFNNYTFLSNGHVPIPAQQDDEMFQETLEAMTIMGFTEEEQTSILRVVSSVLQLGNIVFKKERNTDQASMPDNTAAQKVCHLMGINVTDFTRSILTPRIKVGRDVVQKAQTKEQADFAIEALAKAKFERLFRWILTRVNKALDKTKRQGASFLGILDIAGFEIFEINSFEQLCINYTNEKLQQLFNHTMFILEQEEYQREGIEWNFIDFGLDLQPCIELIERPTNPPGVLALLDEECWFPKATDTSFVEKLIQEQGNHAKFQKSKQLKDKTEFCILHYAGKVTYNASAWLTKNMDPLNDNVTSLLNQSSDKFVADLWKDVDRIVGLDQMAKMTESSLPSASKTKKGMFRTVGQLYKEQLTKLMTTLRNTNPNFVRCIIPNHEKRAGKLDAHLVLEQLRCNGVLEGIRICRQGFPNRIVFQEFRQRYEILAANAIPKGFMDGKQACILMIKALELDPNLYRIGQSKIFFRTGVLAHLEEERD
Nature of the experiment: Smooth muscle myosin ATPase dose response assay (pyruvate kinase/horseradish peroxidase/pyruvate oxidase-coupled, amplex red fluorescence). The settings on record: read-out: IC50 Arithmetic Mean. It counts as biochemical. The procedure, abridged: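 Inhibition is measured in a peroxidase/pyruvate oxidase-linked format at pH 7.00 and 22° C, 0.15 mM ATP final. Myosin input is titrated to a target turnover since active fraction differs between preparations.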
By IC50 is commonly meant the concentration that gives 50% inhibition. With `N#Cc1ccccc1-c1ccc(C(=O)NC[C@H]2CCCN2C(=O)[C@@H](N)CO)c(NCCc2cccc(F)c2)n1` [N-{[(2R)-1-((2S)-2-amino-3-hydroxypropanoyl)pyrrolidin-2-yl]methyl}(6-(2-cyanophenyl)-2-{[2-(3-fluorophenyl)ethyl]amino}(3-pyridyl))carboxamide], the IC50 stood at 173 nM. Under `N#Cc1ccccc1-c1nc(NCCc2cccc(F)c2)c(C(=O)NCc2cccnc2)cc1C#N` [(5-cyano-6-(2-cyanophenyl)-2-{[2-(3-fluorophenyl)ethyl]amino}(3-pyridyl))-N-(3-pyridylmethyl)carboxamide] stands 318 nM. Turning to `CNC(=O)CCCNC(=O)c1ccc(-c2ccccc2C#N)nc1NCCc1cccc(F)c1` [4-[(6-(2-cyanophenyl)-2-{[2-(3-fluorophenyl)ethyl]amino}(3-pyridyl))carbonylamino]-N-methylbutanamide], the IC50 came to 2960 nM. On to `CN(C)CCCNC(=O)CNC(=O)c1ccc(-c2ccccc2C#N)nc1NCCc1cccc(F)c1` [N-[3-(dimethylamino)propyl]-2-[(6-(2-cyanophenyl)-2-{[2-(3-fluorophenyl)ethyl]amino}(3-pyridyl))carbonylamino]acetamide], for which the IC50 was found to be 12200 nM.

Consider `N#Cc1ccccc1-c1ccc(C(=O)NCC(CO)CO)c(NCCc2cccc(F)c2)n1` [(6-(2-cyanophenyl)-2-{[2-(3-fluorophenyl)ethyl]amino}(3-pyridyl))-N-[3-hydroxy-2-(hydroxymethyl)propyl]carboxamide], for which the IC50 came to 209 nM. For `NCCCn1ccc(CNC(=O)c2ccc(-c3cn[nH]c3)nc2NCCc2cccc(F)c2)n1` [N-{[1-(3-aminopropyl)pyrazol-3-yl]methyl}(2-{[2-(3-fluorophenyl)ethyl]amino}-6-pyrazol-4-yl(3-pyridyl))carboxamide], the IC50 worked out at 1410 nM.

Take `N#Cc1ccccc1-c1ccc(C(=O)NCC2CCCC(CN)C2)c(NCCc2cccc(F)c2)n1` (centres unmarked) [N-{[3-(aminomethyl)cyclohexyl]methyl}(6-(2-cyanophenyl)-2-{[2-(3-fluorophenyl)ethyl]amino}(3-pyridyl))carboxamide]: the IC50 stood at 352 nM.

With `C[C@H](N)C(=O)N1CCCC[C@@H]1CNC(=O)c1ccc(-c2ccccc2C#N)nc1NCCc1cccc(F)c1` [N-{[(2R)-1-((2S)-2-aminopropanoyl)(2-piperidyl)]methyl}(6-(2-cyanophenyl)-2-{[2-(3-fluorophenyl)ethyl]amino}(3-pyridyl))carboxamide], the IC50 amounted to 52 nM. Under `CC(C)(C)OC(=O)N[C@H](CO)C(=O)N1CC[C@@H]1CNC(=O)c1ccc(-c2ccccc2C#N)nc1NCCc1cccc(F)c1` [N-[(1R)-2-((2R)-2-{[(6-(2-cyanophenyl)-2-{[2-(3-fluorophenyl)ethyl]amino}(3-pyridyl))carbonylamino]methyl}azetidinyl)-1-(hydroxymethyl)-2-oxoethyl](tert-butoxy)carboxamide] stands 439 nM; under `NCc1ccc(CNC(=O)c2ccc(-c3ccccc3)nc2NCCc2cccc(F)c2)nc1` [N-{[5-(aminomethyl)(2-pyridyl)]methyl}(2-{[2-(3-fluorophenyl)ethyl]amino}-6-phenyl(3-pyridyl))carboxamide], 1060 nM; under `N#Cc1ccccc1-c1ccc(C(=O)NCC2CCN(CCCN)C2)c(NCCc2cccc(F)c2)n1` (centres unmarked) [N-{[1-(3-aminopropyl)pyrrolidin-3-yl]methyl}(6-(2-cyanophenyl)-2-{[2-(3-fluorophenyl)ethyl]amino}(3-pyridyl))carboxamide], 4790 nM. As for `CNC(=O)CNC(=O)c1ccc(-c2ccccc2)nc1NCCc1ccccc1` [N-methyl-2-({6-phenyl-2-[(2-phenylethyl)amino](3-pyridyl)}carbonylamino)acetamide], the figure is 486 nM; as for `CNC(=O)[C@H](N)CCNC(=O)c1ccc(-c2ccccc2C#N)nc1NCCc1cccc(F)c1` [(2R)-2-amino-4-[(6-(2-cyanophenyl)-2-{[2-(3-fluorophenyl)ethyl]amino}(3-pyridyl))carbonylamino]-N-methylbutanamide], 12900 nM. Take `CN(C)C(=O)CCNc1nc(-c2ccccc2C#N)ccc1C(=O)NC[C@H]1CCCN1C(=O)CCCN` [3-{[3-(N-{[(2R)-1-(4-aminobutanoyl)pyrrolidin-2-yl]methyl}carbamoyl)-6-(2-cyanophenyl)(2-pyridyl)]amino}-N,N-dimethylpropanamide]: the IC50 was 3560 nM.

Consider `NCCC(=O)N1CCC[C@@H]1CNC(=O)c1cc(F)c(-c2cn[nH]c2)nc1NCCc1cccc(F)c1` [N-{[(2R)-1-(3-aminopropanoyl)pyrrolidin-2-yl]methyl}(5-fluoro-2-{[2-(3-fluorophenyl)ethyl]amino}-6-pyrazol-4-yl(3-pyridyl))carboxamide], for which the IC50 was found to be 90 nM.

Regarding `CC(C)(C)OC(=O)NCCCN1CCC(CNC(=O)c2ccc(-c3ccccc3C#N)nc2NCCc2cccc(F)c2)C1=O` (centres unmarked) [N-[(1-{3-[(tert-butoxy)carbonylamino]propyl}-2-oxopyrrolidin-3-yl)methyl](6-(2-cyanophenyl)-2-{[2-(3-fluorophenyl)ethyl]amino}(3-pyridyl))carboxamide], the IC50 came to 104 nM.

On to `N#Cc1ccc(CNC(=O)c2ccc(-c3ccccc3)nc2NCCc2cccc(F)c2)cn1` [N-[(6-cyano(3-pyridyl))methyl](2-{[2-(3-fluorophenyl)ethyl]amino}-6-phenyl(3-pyridyl))carboxamide], for which the IC50 worked out at 1240 nM.

Take `CC(C)(C)OC(=O)N[C@@H](CCCN)C(=O)N1CC[C@@H]1CNC(=O)c1ccc(-c2ccccc2C#N)nc1NCCc1cccc(F)c1` [N-[2-((2R)-2-([(6-(2-cyanophenyl)-2-{[2-(3-fluorophenyl)ethyl]amino}(3-pyridyl))carbonylamino]methyl}azetidinyl)(1S)-1-(3-aminopropyl)-2-oxoethyl](tert-butoxy)carboxamide]: the IC50 worked out at 1350 nM.

For the molecule `Cc1cc(C(=O)NC[C@H]2CCCN2C(=O)OC(C)(C)C)c(NCCc2cccc(F)c2)nc1-c1cnn(C)c1` [tert-butyl (2R)-2-{[(2-{[2-(3-fluorophenyl)ethyl]amino}-5-methyl-6-(1-methylpyrazol-4-yl)(3-pyridyl))carbonylamino]methyl}pyrrolidinecarboxylate], the IC50 is 3700 nM. `N#Cc1ccccc1-c1ccc(C(=O)NC[C@H]2CNCC(=O)N2CCCN)c(NCCc2cccc(F)c2)n1` [N-{[(2R)-1-(3-aminopropyl)-6-oxopiperazin-2-yl]methyl}(6-(2-cyanophenyl)-2-{[2-(3-fluorophenyl)ethyl]amino}(3-pyridyl))carboxamide]: the IC50 turned out to be 318 nM. Under `O=C(NCc1cccnc1)c1ccc(-c2cnoc2)nc1NCCc1cccc(F)c1` [(2-{[2-(3-fluorophenyl)ethyl]amino}-6-isoxazol-4-yl(3-pyridyl))-N-(3-pyridylmethyl)carboxamide] stands 49800 nM; under `NCCCC(=O)N1CCC[C@@H]1CNC(=O)c1cc(F)c(-c2cn[nH]c2)nc1NCCc1cccc(F)c1` [N-{[(2R)-1-(4-aminobutanoyl)pyrrolidin-2-yl]methyl}(5-fluoro-2-{[2-(3-fluorophenyl)ethyl]amino}-6-pyrazol-4-yl(3-pyridyl))carboxamide], 47 nM; under `O=C(NCc1cccc(Br)n1)c1ccc(-c2cn[nH]c2)nc1NCCc1cccc(F)c1` [N-[(6-bromo(2-pyridyl))methyl](2-{[2-(3-fluorophenyl)ethyl]amino}-6-pyrazol-4-yl(3-pyridyl))carboxamide], 117 nM.
